Data published in patent US8796289B2 (AbbVie Inc., priority 2011, dated 2014).

These molecules were tested against GST-tagged-Wee1 kinase (Homo sapiens, UniProt P30291) (assay: Wee1 time-resolved fluorescence equilibrium binding assay (displacement of Oregon Green-labeled ATP-competitive kinase probe)).
Procedure: Wee1 kinase was assayed using a time-resolved fluorescence equilibrium binding assay monitoring displacement of a rapidly reversible Oregon Green-labeled ATP-competitive kinase probe (N-(2-(2-(2-(4-(4-(5-chloro-4-(2-(1-hydroxycyclobutyl)thiazol-5-yl)-1H-pyrrolo[2,3-b]pyridin-2-yl)phenyl)piperazin-1-yl)ethoxy)ethoxy)ethyl)-2′,7′-difluoro-3′,6′-dihydroxy-3-oxo-3H-spiro[isobenzofuran-1,9′-xanthene]-5-carboxamide) by competitive Wee1 inhibitors.

Sequence of GST-tagged-Wee1 kinase (P30291 whole entry): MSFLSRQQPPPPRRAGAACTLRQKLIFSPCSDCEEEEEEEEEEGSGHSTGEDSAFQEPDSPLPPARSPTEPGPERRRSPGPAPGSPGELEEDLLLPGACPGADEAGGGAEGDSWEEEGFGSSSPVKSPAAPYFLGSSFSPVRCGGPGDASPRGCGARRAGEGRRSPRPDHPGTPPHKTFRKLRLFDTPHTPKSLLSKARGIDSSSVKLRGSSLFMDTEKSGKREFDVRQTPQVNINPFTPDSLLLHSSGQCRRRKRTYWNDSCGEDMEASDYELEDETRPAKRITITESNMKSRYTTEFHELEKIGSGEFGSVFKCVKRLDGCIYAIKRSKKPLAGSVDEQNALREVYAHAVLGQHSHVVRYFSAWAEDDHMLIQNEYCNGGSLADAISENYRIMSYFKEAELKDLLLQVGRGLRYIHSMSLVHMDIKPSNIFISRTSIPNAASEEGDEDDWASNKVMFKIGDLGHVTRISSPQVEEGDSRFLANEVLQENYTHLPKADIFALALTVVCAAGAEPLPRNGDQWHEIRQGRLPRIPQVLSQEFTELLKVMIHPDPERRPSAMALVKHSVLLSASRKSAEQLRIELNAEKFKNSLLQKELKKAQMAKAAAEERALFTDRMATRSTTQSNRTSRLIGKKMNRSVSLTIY

| Structure (SMILES) | Ki [nM] |
| --- | --- |
| CN1CCN(c2ccc(Nc3ncc4c(=O)n(-c5c(Cl)cccc5Cl)nc(-c5cnn(CCN6CCCCC6)c5)c4n3)cc2)CC1 [Example 213, 6-(2,6-dichlorophenyl)-2-{[4-(4-methylpiperazin-1-yl)phenyl]amino}-8-{1-[2-(piperidin-1-yl)ethyl]-1H-pyrazol-4-yl}pyrimido[4,5-d]pyridazin-5(6H)-one] | 0.6 |
| CN1CCN(CCn2cc(-c3nn(-c4c(Cl)cccc4Cl)c(=O)c4cnc(Nc5ccc(N6CCN(C)CC6)cc5)nc34)cn2)CC1 [Example 214, 6-(2,6-dichlorophenyl)-8-{1-[2-(4-methylpiperazin-1-yl)ethyl]-1H-pyrazol-4-yl}-2-{[4-(4-methylpiperazin-1-yl)phenyl]amino}pyrimido[4,5-d]pyridazin-5(6H)-one] | 0.4 |
| CN1CCN(Cc2cccc(-c3nn(-c4c(Cl)cccc4Cl)c(=O)c4cnc(Nc5ccc(N6CCN(C)CC6)cc5)nc34)c2)CC1 [Example 215, 6-(2,6-dichlorophenyl)-8-{3-[(4-methylpiperazin-1-yl)methyl]phenyl}-2-{[4-(4-methylpiperazin-1-yl)phenyl]amino}pyrimido[4,5-d]pyridazin-5(6H)-one] | 0.2 |
| CN1CCN(c2ccc(Nc3ncc4c(=O)n(-c5c(Cl)cccc5Cl)nc(-c5cccc(C(=O)N6CCC6)c5)c4n3)cc2)CC1 [Example 216, 8-[3-(azetidin-1-ylcarbonyl)phenyl]-6-(2,6-dichlorophenyl)-2-{[4-(4-methylpiperazin-1-yl)phenyl]amino}pyrimido[4,5-d]pyridazin-5(6H)-one] | 0.1 |
| Nc1ccc(N2CCN(c3ncc4c(=O)n(-c5ccncc5)nc(-c5ccccn5)c4n3)CC2)cc1 [Example 218, 2-(4-(4-aminophenyl)piperazin-1-yl)-8-(pyridin-2-yl)-6-(pyridin-4-yl)pyridazino[4,5-d]pyrimidin-5(6H)-one] | 480 |
| CC(=O)c1cc(-c2nn(-c3c(Cl)cccc3Cl)c(=O)c3cnc(Nc4ccc(N5CCN(C)CC5)cc4)nc23)ccn1 [Example 219, 8-(2-acetylpyridin-4-yl)-6-(2,6-dichlorophenyl)-2-{[4-(4-methylpiperazin-1-yl)phenyl]amino}pyrimido[4,5-d]pyridazin-5(6H)-one] | 0.1 |
| COC(=O)c1cc(-c2nn(-c3c(Cl)cccc3Cl)c(=O)c3cnc(Nc4ccc(N5CCN(C)CC5)cc4)nc23)ccn1 [Example 222, methyl 4-[6-(2,6-dichlorophenyl)-2-{[4-(4-methylpiperazin-1-yl)phenyl]amino}-5-oxo-5,6-dihydropyrimido[4,5-d]pyridazin-8-yl]pyridine-2-carboxylate] | 0.2 |

Other lines, results leading:

| Ki [nM] | Structure (SMILES) |
| --- | --- |
| 0.1 | O=c1c2cnc(Nc3ccc4c(c3)CNCC4)nc2c(-c2ccccn2)nn1-c1c(Cl)cccc1Cl [Example 217, 6-(2,6-dichlorophenyl)-8-(pyridin-2-yl)-2-(1,2,3,4-tetrahydroisoquinolin-7-ylamino)pyrimido[4,5-d]pyridazin-5(6H)-one] |
| 0.4 | O=c1c2cnc(Nc3ccc(N4CCNCC4)cc3)nc2c(-c2cnccn2)nn1-c1c(Cl)cccc1Cl [Example 220, 6-(2,6-dichlorophenyl)-2-{[4-(piperazin-1-yl)phenyl]amino}-8-(pyrazin-2-yl)pyrimido[4,5-d]pyridazin-5(6H)-one] |
| 0.2 | O=c1c2cnc(Nc3ccc4c(c3)CNCC43CC3)nc2c(-c2ccccn2)nn1-c1c(Cl)cccc1Cl [Example 221, 6-(2,6-dichlorophenyl)-2-(2′,3′-dihydro-1′H-spiro[cyclopropane-1,4′-isoquinolin]-7′-ylamino)-8-(pyridin-2-yl)pyrimido[4,5-d]pyridazin-5(6H)-one] |
| 0.2 | Cc1cc(Nc2ncc3c(=O)n(-c4c(Cl)cccc4Cl)nc(-c4ccccn4)c3n2)ccc1N1CCCN(C)CC1 [Example 223] |
| 0.07 | O=c1c2cnc(Nc3ccc4c(c3)CNCC4)nc2c(-c2ccncc2)nn1-c1c(Cl)cccc1Cl [Example 224, 6-(2,6-dichlorophenyl)-8-(pyridin-4-yl)-2-(1,2,3,4-tetrahydroisoquinolin-7-ylamino)pyrimido[4,5-d]pyridazin-5(6H)-one] |
